Values quoted from earlier work as cited in PMC11865562 (Scientific Reports, 2025).

System: P-gp

Question: Which “P-gp substrate (reported)” value does the source give for CNC(=O)c1ccc(-c2cnc3ncc(Cc4ccc5ncccc5c4)n3n2)cc1F [Capmatinib, capmatinib] here?
Answer: P-gp substrate
